In experiment [1] the test system is KRas-mediated phosphorylation of ERK in AsPC-1 cells. Nature of the experiment: Inhibition of KRas-mediated phosphorylation of ERK (Cisbio HTRF pERK), AsPC-1 cells. It is filed as cell-based. The settings on record: Homo sapiens, ASPC1, AsPC-1 cells; HTRF pERK. Summed up:
(§1)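 A cell-based HTRF pERK assay: ten-point, threefold titrations beginning at 10 uM were applied for 3 hrs, with 0.2 uM Trametinib wells as the minimum control. Cells were lysed cold, and lysate was incubated with the antibody pair for 2 hrs before reading.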
(TR-FRET usually uses a lanthanide donor and a delayed reading to cut background.)

The target in the next experiment is T1, KRas^G12R (Homo sapiens, UniProt P01116, G12R).
T1 construct: Biotinylated KRas (corresponding to amino acids 1-169, produced at Accelegan Inc.); biotin (biotinylated); purchased Accelegan Inc
Nature of the experiment: KRas binding assay (TR-FRET tracer displacement), KRas G12R.

A further experiment has as its target T2, KRas^G12V (Homo sapiens, UniProt P01116, G12V).
T2 construct: Biotinylated KRas (corresponding to amino acids 1-169, produced at Accelegan Inc.); biotin (biotinylated); purchased Accelegan Inc
Nature of the experiment: KRas binding assay (TR-FRET tracer displacement), KRas G12V.

The test system of experiment [2] is KRas-mediated phosphorylation of ERK in H727 cells. Nature of the experiment: Inhibition of KRas-mediated phosphorylation of ERK (Cisbio HTRF pERK), H727 cells. It is filed as cell-based. The settings on record: Homo sapiens, NCI-H727, H727 cells; HTRF pERK. Put shortly:
as §1

A further experiment has as its target T3, KRas^G12D (Homo sapiens, UniProt P01116, G12D).
T3 construct: Biotinylated KRas (corresponding to amino acids 1-169, produced at Accelegan Inc.); biotin (biotinylated); purchased Accelegan Inc
The experiment is described as follows: KRas binding assay (TR-FRET tracer displacement), KRas G12D.

Here are results for 14 molecules from patent US20260015350A1, “AZAQUINAZOLINE PAN-KRAS INHIBITORS” (Mirati Therapeutics, Inc., priority 2022, published 2026).

As usually defined, the IC50 is the concentration at which inhibition is half-maximal. Higher therefore signals weaker potency.

T3 sequence (P01116 1-169 isoform P01116-2 G12D): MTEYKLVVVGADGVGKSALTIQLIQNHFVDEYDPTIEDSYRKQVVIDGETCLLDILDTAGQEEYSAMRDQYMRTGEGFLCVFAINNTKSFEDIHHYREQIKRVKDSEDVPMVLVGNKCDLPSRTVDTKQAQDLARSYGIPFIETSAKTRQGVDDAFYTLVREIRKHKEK
T2 sequence (P01116 1-169 isoform P01116-2 G12V): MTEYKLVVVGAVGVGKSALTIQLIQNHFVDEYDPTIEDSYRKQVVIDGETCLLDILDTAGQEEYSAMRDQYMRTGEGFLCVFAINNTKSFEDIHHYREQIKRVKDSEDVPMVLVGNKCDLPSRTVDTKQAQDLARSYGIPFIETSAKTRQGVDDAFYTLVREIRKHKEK
T1 sequence (P01116 1-169 isoform P01116-2 G12R): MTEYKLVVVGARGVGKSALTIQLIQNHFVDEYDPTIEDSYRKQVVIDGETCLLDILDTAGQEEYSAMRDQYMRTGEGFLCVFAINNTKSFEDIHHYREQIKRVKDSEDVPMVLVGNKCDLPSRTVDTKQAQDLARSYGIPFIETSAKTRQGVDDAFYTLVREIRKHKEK

As for `CCc1c(F)ccc2cc(O)cc(-c3ncc4c(N5Cc6n[nH]c(C(N)=O)c6C5)nc(OC[C@@]56CCCN5C[C@H](F)C6)nc4c3F)c12` [Example 588, 5-(7-(8-ethyl-7-fluoro-3-hydroxynaphthalen-1-yl)-8-fluoro-2-(((2R,7aS)-2-fluorotetrahydro-1H-pyrrolizin-7a(5H)-yl)methoxy)pyrido[4,3-d]pyrimidin-4-yl)-2,4,5,6-tetrahydropyrrolo[3,4-c]pyrazole-3-carboxamide], the half-maximal inhibitory concentration (IC50) in experiment [1] is more than 10000 nM; at KRas^G12R, 621 nM; at KRas^G12V, 314 nM; in experiment [2], more than 10000 nM; on KRas^G12D it was 1780 nM.
For the molecule `CCc1c(F)ccc2cc(O)cc(-c3ncc4c(N5CCCC6(CC=CCO6)C5)nc(OC[C@@]56CCCN5C[C@H](F)C6)nc4c3F)c12` (stereo partly drawn) [Example 589, 5-ethyl-6-fluoro-4-(8-fluoro-2-(((2R,7aS)-2-fluorotetrahydro-1H-pyrrolizin-7a(5H)-yl)methoxy)-4-(1-oxa-8-azaspiro[5.5]undec-3-en-8-yl)pyrido[4,3-d]pyrimidin-7-yl)naphthalen-2-ol], the IC50 in experiment [1] was determined as 1540 nM; on KRas^G12R it was 12 nM; at KRas^G12V, 16 nM; in experiment [2], 731 nM; on KRas^G12D it was 38 nM.
For the molecule `CCc1c(F)ccc2cc(O)cc(-c3ncc4c(N5CCC(CC6CCOC6)C5)nc(OC[C@@]56CCCN5C[C@H](F)C6)nc4c3F)c12` (stereo partly drawn) [Example 596, 5-ethyl-6-fluoro-4-(8-fluoro-2-(((2R,7aS)-2-fluorohexahydro-1H-pyrrolizin-7a-yl)methoxy)-4-(3-((tetrahydrofuran-3-yl)methyl)pyrrolidin-1-yl)pyrido[4,3-d]pyrimidin-7-yl)naphthalen-2-ol], the IC50 in experiment [1] is more than 10000 nM; at KRas^G12R, 434 nM; at KRas^G12V, 94 nM; in experiment [2], 2450 nM; at KRas^G12D, 805 nM.
For `CCc1c(F)ccc2cc(O)cc(-c3ncc4c(N5CCC(CC6CCCO6)C5)nc(OC[C@@]56CCCN5C[C@H](F)C6)nc4c3F)c12` (stereo partly drawn) [Example 597, 5-ethyl-6-fluoro-4-(8-fluoro-2-(((2R,7aS)-2-fluorotetrahydro-1H-pyrrolizin-7a(5H)-yl)methoxy)-4-(3-((tetrahydrofuran-2-yl)methyl)pyrrolidin-1-yl)pyrido[4,3-d]pyrimidin-7-yl)naphthalen-2-ol], the 50% inhibitory concentration (IC50) in experiment [1] is 4800 nM; at KRas^G12R, 194 nM; at KRas^G12V, 82 nM; in experiment [2] it was 2360 nM; at KRas^G12D it was 867 nM.
For `CCc1c(F)ccc2cc(O)cc(-c3ncc4c(N5CCC6(CNC(=O)OC6)C5)nc(OC[C@@]56CCCN5C[C@H](F)C6)nc4c3F)c12` (stereo partly drawn) [Example 598, 2-(7-(8-ethyl-7-fluoro-3-hydroxynaphthalen-1-yl)-8-fluoro-2-(((2R,7aS)-2-fluorotetrahydro-1H-pyrrolizin-7a(5H)-yl)methoxy)pyrido[4,3-d]pyrimidin-4-yl)-7-oxa-2,9-diazaspiro[4.5]decan-8-one] the same measures were more than 10000 nM, 66 nM, 84 nM, more than 10000 nM and 820 nM.
The corresponding values for `CCc1c(F)ccc2cc(O)cc(-c3ncc4c(N5C6CNC(=O)CC5COC6)nc(OC[C@@]56CCCN5C[C@H](F)C6)nc4c3F)c12` (stereo partly drawn) [Example 599, 10-(7-(8-ethyl-7-fluoro-3-hydroxynaphthalen-1-yl)-8-fluoro-2-(((2R,7aS)-2-fluorohexahydro-1H-pyrrolizin-7a-yl)methoxy)pyrido[4,3-d]pyrimidin-4-yl)-8-oxa-3,10-diazabicyclo[4.3.1]decan-4-one] are more than 10000 nM, 23 nM, 85 nM, more than 10000 nM and 2120 nM.
For `CCc1c(F)ccc2cc(O)cc(-c3ncc4c(N5CCC6(CC5)OCCC6O)nc(OC[C@@]56CCCN5C[C@H](F)C6)nc4c3F)c12` (stereo partly drawn) [Example 600, 8-(7-(8-ethyl-7-fluoro-3-hydroxynaphthalen-1-yl)-8-fluoro-2-(((2R,7aS)-2-fluorotetrahydro-1H-pyrrolizin-7a(5H)-yl)methoxy)pyrido[4,3-d]pyrimidin-4-yl)-1-oxa-8-azaspiro[4.5]decan-4-ol] the same measures were more than 10000 nM, 886 nM, 880 nM, more than 10000 nM and 5040 nM.
As to `CCc1c(F)ccc2cc(O)cc(-c3ncc4c(N5CCOC[C@@](C)(COC)C5)nc(OC[C@@]56CCCN5C[C@H](F)C6)nc4c3F)c12` [Example 602, 5-ethyl-6-fluoro-4-(8-fluoro-2-(((2R,7aS)-2-fluorotetrahydro-1H-pyrrolizin-7a(5H)-yl)methoxy)-4-((R)-6-(methoxymethyl)-6-methyl-1,4-oxazepan-4-yl)pyrido[4,3-d]pyrimidin-7-yl)naphthalen-2-ol], the IC50 stood at 5460 nM in experiment [1]; 161 nM at KRas^G12R; 243 nM on KRas^G12V; 3870 nM in experiment [2]; 484 nM on KRas^G12D.
The corresponding values for `CCc1c(F)ccc2cc(O)cc(-c3ncc4c(N5CCC6(CC5)CC[S+]6[O-])nc(OC[C@@]56CCCN5C[C@H](F)C6)nc4c3F)c12` (stereo partly drawn) [Example 603, 7-(7-(8-ethyl-7-fluoro-3-hydroxynaphthalen-1-yl)-8-fluoro-2-(((2R,7aS)-2-fluorotetrahydro-1H-pyrrolizin-7a(5H)-yl)methoxy)pyrido[4,3-d]pyrimidin-4-yl)-1-thia-7-azaspiro[3.5]nonane 1-oxide] are more than 10000 nM, 453 nM, 590 nM, more than 10000 nM and 1630 nM.
The corresponding values for `CCc1c(F)ccc2cc(O)cc(-c3ncc4c(N5C[C@@H]6[C@@H](CC#N)NC(=O)[C@@H]6C5)nc(OC[C@@]56CCCN5C[C@H](F)C6)nc4c3F)c12` [Example 606, 2-((1R,3aS,6aR)-5-(7-(8-ethyl-7-fluoro-3-hydroxynaphthalen-1-yl)-8-fluoro-2-(((2R,7aS)-2-fluorohexahydro-1H-pyrrolizin-7a-yl)methoxy)pyrido[4,3-d]pyrimidin-4-yl)-3-oxooctahydropyrrolo[3,4-c]pyrrol-1-yl) acetonitrile] are more than 10000 nM, 71 nM, 43 nM, more than 10000 nM and 26 nM.
For `CCc1c(F)ccc2cc(O)cc(-c3ncc4c(N5CCC(Cc6ccn(C)n6)C5)nc(OC[C@@]56CCCN5C[C@H](F)C6)nc4c3F)c12` (stereo partly drawn) [Example 611, 5-ethyl-6-fluoro-4-(8-fluoro-2-(((2R,7aS)-2-fluorotetrahydro-1H-pyrrolizin-7a(5H)-yl)methoxy)-4-(3-((1-methyl-1H-pyrazol-3-yl)methyl)pyrrolidin-1-yl)pyrido[4,3-d]pyrimidin-7-yl)naphthalen-2-ol] the same measures were 4470 nM, 127 nM, 121 nM, 1950 nM and 1530 nM.
With `CCc1c(F)ccc2cc(O)cc(-c3ncc4c(N5CCC6(CC5)OCCC6C#N)nc(OC[C@@]56CCCN5C[C@H](F)C6)nc4c3F)c12` (stereo partly drawn) [Example 612, 8-(7-(8-ethyl-7-fluoro-3-hydroxynaphthalen-1-yl)-8-fluoro-2-(((2R,7aS)-2-fluorohexahydro-1H-pyrrolizin-7a-yl)methoxy)pyrido[4,3-d]pyrimidin-4-yl)-1-oxa-8-azaspiro[4.5]decane-4-carbonitrile], the half-inhibitory concentration (IC50) is more than 10000 nM in experiment [1]; 911 nM at KRas^G12R; 474 nM at KRas^G12V; more than 10000 nM in experiment [2]; 4250 nM on KRas^G12D.
As for `CCc1c(F)ccc2cc(O)cc(-c3ncc4c(N5CC6(CO)CC(C7CC7)(C5)C6)nc(OC[C@@]56CCCN5C[C@H](F)C6)nc4c3F)c12` [Example 613, 4-(4-(1-cyclopropyl-5-(hydroxymethyl)-3-azabicyclo[3.1.1]heptan-3-yl)-8-fluoro-2-(((2R,7aS)-2-fluorohexahydro-1H-pyrrolizin-7a-yl)methoxy)pyrido[4,3-d]pyrimidin-7-yl)-5-ethyl-6-fluoronaphthalen-2-ol], the concentration for half-maximal inhibition (IC50) in experiment [1] is more than 10000 nM; at KRas^G12R, 27500 nM; on KRas^G12V it was 21800 nM; in experiment [2], more than 10000 nM; on KRas^G12D, 54800 nM.
Turning to `CCc1c(F)ccc2cc(O)cc(-c3ncc4c(N5CC[C@@H]6C(=O)NC(=O)[C@@H]6CC5)nc(OC[C@@]56CCCN5C[C@H](F)C6)nc4c3F)c12` [Example 614, (3aR,8aS)-6-(7-(8-ethyl-7-fluoro-3-hydroxynaphthalen-1-yl)-8-fluoro-2-(((2R,7aS)-2-fluorohexahydro-1H-pyrrolizin-7a-yl)methoxy)pyrido[4,3-d]pyrimidin-4-yl)hexahydropyrrolo[3,4-d]azepine-1,3(2H,3aH)-dione], the IC50 in experiment [1] is more than 10000 nM; on KRas^G12R, 701 nM; on KRas^G12V, 398 nM; in experiment [2], more than 10000 nM; at KRas^G12D, 805 nM.
